From US20160333006A1, “ARYL LACTA KINASE INHIBITORS” (Bristol-Myers Squibb Company, priority 2014, published 2016) come the findings set out here.

For one experiment, the system named is mice. Description: formalin paw test. Type of experiment: in vivo, mouse. The procedure:
AAK1 homozygous (−/−) and their wild-type (+/+) littermates were tested using the formalin paw test in order to assess their acute and tonic nociceptive responses. For these tests, Automatic Nociception Analyzers (purchased from the Ozaki lab at University of California, San Diego) were used. A metal band was placed around the left hind paw of each mouse 30 minutes prior to testing. After the 30-minute acclimation period, 20 μl of 5% formalin is subcutaneously injected in the dorsal surface of the left hind paw. Mice were individually housed in cylindrical chambers for 45 minutes. Fresh 5% formalin solution was prepared by diluting formaldehyde (Formalde-fresh 20%, Fisher Scientific, Fair Lawn, N.J.) with distilled water. Investigatory compounds were administered 30 minutes prior to formalin injection.
A computer recorded flinches per minute, total flinches for phase I (acute phase=first 8 minutes), and total flinches for phase II (tonic phase=time between minutes 20-40) through an electromagnetic field. See Yaksh T L, Ozaki G, McCumber D, Rathbun M, Svensson C, Malkmus S, Yaksh M C. An automated flinch detecting system for use in the formalin nociceptive bioassay. J Appl Physiol., 2001; 90:2386-402.
The same test was used to confirm that the administration of an AAK1 inhibitor can also affect pain response.
A compound of the disclosure was tested in this assay at different doses. Gabapentin and pregabalin were used as positive controls. Results are shown below in Table 2, wherein the effect of gabapentin at 200 mg/kg is considered a 100% response, the % response for the other compounds is relative to the 200 mg/kg dose of gabapentin, “sc” means subcutaneous administration; “po” means oral administration.

Experiment [1] addresses T1, AAK1 (full length human) in HEK293F cells (Homo sapiens, UniProt Q2M2I8).
T1 construct: fused on or other part: HA tag (AAK1/HA in pIRES vector)
Description: HEK281 cell-based assay (phospho-mu2 Western blot in transfected HEK293F cells). Particulars: 3 hours, phospho-mu2, given as IC50 range. The procedure:
On day one, cells were plated on a 10 cm dish so that they are ˜80% confluent at time oftransfection. Roughly 12 million cells were in a 10 cm dish at time of transfection. […] The DNA was comprised of a mixture (per 10 cm dish) containing 3 ug AAK1/HA/pIRES (full length human, NCBI accession no. NP_055726.2), 45 μg Flag/AP2MI/pcDNA (full length human), and 1.5 ml OPTI-MEM. The Lipofectamine 2000 is made up of a mixture (per 10 cm dish) containing 144 μl Lipofectamine 2000 and 1.5 ml OPTI-MEM. Each mixture was transferred to individual 15 ml tubes and incubated at RT for 5 minutes, and then the two mixes were combined and incubated at RT for 20 minutes. Growth media was then aspirated from each 10 cm plate and replaced with 10 ml of DMEM+10% FBS (no GPS). Finally, 3 ml DNA/Lipofectamine mix was added to each 10 cm dish and mix gently followed by incubate of plate overnight at 37° C. and 5% CO2.
On day three, compounds were diluted in 100% DMSO at 1000× final concentration, followed by 3-fold serial dilutions for a total of 5 concentrations tested. Four compounds were tested per 10 cm dish. One ul of each compound dilution was then pipetted into a deep-well, 96-well plate, followed by addition of 500 μl DMEM+0.5% FBS into each well for a 2× final concentration of each compound. Cells were resuspended in a 10 cm dish by simple pipetting (HEK293 cells come off the plate that easy at this point) and then transferred to a 50 ml conical tube and pelleted by centrifugation at 1000 rpm for 5 min. Cell pellets were then resuspended in 2.75 ml DMEM+0.5% FBS per 10 cm dish and 100 μl of cell suspension transferred into each well of 96-well TC plate. Finally, 100 μl of 2× compound diluted in DMEM+0.5% FBS was then added into wells containing cell suspension for a 1× final concentration. Plates were then incubated at 37° C. and 5% CO2 for 3 hours followed by transferring of cell suspensions from each well into 12-tube PCR strips. The PCR strips were spun in a tip rack at 1000 rpm for 5 minutes to pellet cells and media was then removed by pipetting without disturbing the cell pellet.
Five ul of 10× NuPage Sample Reducing Agent (with 50 mM DTT) was to each sample followed by heat denaturing at 70 C for 10 min on PCR machine. […] For controls, 2 ng of phospho-mu2 or 20 ng mu2/Flag proteins were loaded in the last well of each gel. After SDS-PAGE, samples on each gel were transferred to PVDF membrane using an iBlot and membranes were blocked for one hour in TBST+5% milk, followed by wash 3× for 5-10 min with TBST.
Finally, the camera was set up to take a picture every 30 seconds for 10 minutes and the best image saved for each blot with no saturated signal (when the signal is saturated, the bands will be highlighted red). A volume analysis on each band was performed to obtain density values. Percent inhibition was calculated for each sample by first normalizing to total Mu2 expression levels and then comparing to 0% and 100% controls. IC50 values were then calculated using Excel fitting software.

Another experiment addresses T2, GST-Xa-hAAK1 (Homo sapiens, UniProt Q2M2I8).
T2 construct: made in house
Description: AAK1 kinase assay. Type of experiment: biochemical. Particulars: ATP 22 μM; given as IC50 range. An outline of the steps: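 Bacterially expressed GST-Xa-hAAK1 was combined with substrates and compounds (eleven concentrations) and incubated 3 h at room temperature, then stopped with EDTA. Fluorescent substrate and phosphorylated product were separated electrophoretically (Caliper LabChip), and IC50 values came from non-linear regression.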

Setting [2] is: 50 mg/kg sc, relative to gabapentin 200 mg/kg = 100% response.

T2 sequence (Q2M2I8 whole entry): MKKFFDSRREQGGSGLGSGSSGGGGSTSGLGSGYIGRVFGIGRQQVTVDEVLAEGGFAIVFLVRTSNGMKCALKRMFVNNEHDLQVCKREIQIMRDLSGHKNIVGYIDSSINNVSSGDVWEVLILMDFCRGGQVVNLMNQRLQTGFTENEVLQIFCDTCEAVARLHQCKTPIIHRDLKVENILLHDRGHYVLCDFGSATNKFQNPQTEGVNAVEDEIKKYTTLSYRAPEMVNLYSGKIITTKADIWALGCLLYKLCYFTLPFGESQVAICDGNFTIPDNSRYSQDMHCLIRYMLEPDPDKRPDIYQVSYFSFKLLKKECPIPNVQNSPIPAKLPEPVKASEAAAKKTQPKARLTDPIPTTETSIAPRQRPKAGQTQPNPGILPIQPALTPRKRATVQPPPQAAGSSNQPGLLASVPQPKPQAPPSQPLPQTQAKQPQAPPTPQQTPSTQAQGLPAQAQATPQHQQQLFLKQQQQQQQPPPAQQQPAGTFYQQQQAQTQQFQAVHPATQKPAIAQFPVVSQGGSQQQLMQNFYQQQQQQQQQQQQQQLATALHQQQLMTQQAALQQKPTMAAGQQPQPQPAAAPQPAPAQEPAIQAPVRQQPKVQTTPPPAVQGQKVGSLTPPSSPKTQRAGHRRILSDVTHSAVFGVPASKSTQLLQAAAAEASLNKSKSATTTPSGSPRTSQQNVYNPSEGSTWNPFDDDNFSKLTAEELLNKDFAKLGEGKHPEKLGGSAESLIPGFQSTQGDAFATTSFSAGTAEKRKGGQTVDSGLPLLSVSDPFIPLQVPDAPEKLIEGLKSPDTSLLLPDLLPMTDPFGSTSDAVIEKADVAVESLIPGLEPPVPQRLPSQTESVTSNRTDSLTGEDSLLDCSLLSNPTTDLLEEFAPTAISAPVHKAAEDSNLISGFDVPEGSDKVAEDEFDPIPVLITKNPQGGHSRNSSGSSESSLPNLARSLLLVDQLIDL
T1 sequence (Q2M2I8 1-822 limits assumed): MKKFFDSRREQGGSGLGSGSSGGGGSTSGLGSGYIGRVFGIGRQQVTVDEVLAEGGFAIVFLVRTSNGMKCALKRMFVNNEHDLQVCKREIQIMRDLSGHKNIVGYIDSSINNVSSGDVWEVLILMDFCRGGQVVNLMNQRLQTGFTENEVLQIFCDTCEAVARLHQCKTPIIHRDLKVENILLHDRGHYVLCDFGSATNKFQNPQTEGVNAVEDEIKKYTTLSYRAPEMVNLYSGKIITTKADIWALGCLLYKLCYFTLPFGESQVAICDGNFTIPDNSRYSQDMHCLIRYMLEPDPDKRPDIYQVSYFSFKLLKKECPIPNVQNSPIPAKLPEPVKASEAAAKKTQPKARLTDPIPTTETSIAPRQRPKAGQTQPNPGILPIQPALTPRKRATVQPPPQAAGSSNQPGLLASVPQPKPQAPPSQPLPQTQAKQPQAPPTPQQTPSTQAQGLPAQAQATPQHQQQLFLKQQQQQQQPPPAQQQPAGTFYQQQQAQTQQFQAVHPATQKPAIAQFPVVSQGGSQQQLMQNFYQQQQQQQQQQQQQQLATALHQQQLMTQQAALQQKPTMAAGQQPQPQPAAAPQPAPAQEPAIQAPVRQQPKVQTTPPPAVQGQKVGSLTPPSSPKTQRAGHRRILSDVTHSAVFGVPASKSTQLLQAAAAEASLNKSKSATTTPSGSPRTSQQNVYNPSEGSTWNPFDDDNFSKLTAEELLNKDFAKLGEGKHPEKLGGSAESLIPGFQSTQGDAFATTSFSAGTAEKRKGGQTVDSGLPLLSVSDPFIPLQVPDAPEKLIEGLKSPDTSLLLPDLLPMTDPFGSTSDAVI

With `CC(C)C[C@H](N)COc1cc2c(cc1F)c1ccncc1c(=O)n2C` [Example 14, (S)-8-((2-amino-4-methylpentyl)oxy)-9-fluoro-6-methylbenzo[c][2,7]naphthyridin-5(6H)-one], in the experiment with mice (30 mg/kg po, relative to gabapentin 200 mg/kg = 100% response), the Response is reported as 62%.
For the molecule `CC(C)NCC(O)COc1cc2c(cc1Br)c1ccncc1c(=O)n2C` (stereo not drawn) [Example 148, 9-bromo-8-(2-hydroxy-3-(isopropylamino)propoxy)-6-methylbenzo[c][2,7]naphthyridin-5(6H)-one], the IC50 (in experiment [1]; at GST-Xa-hAAK1) was 100 to 2000 nM each time.
Consider `NCC1(CC(=O)O)CCCCC1` [Gabapentin], for which the Response in the experiment on mice (setting [2]) is recorded as 60%; in the experiment with mice (200 mg/kg sc, considered a 100% response), 100%.
Consider `CC(C)C[C@H](CN)CC(=O)O` [Pregabalin, pregabalin], for which the Response in the experiment on mice (setting [2]) is recorded as 90%.
